Series [1] in a line: Example 5: precipitation from 90× electrolyte beverage product with 0.45 wt % Red 40 and added benzaldehyde solution or propylene glycol. The class given is physicochemical. On the procedure: A 90× electrolyte beverage product was made without flavor containing 0.45 wt % Red 40, and a 3.0% benzaldehyde solution was made with propylene glycol. The benzaldehyde solution was then added back to the flavorless base at various levels up to 10%. As a control, the same variants were made without benzaldehyde solution, but with 100% propylene glycol, to confirm that any precipitation was directly due to the benzaldehdye and not propylene glycol. The formulations are as follows: […]

A short description of series [2]: Observation of precipitate in model solutions of azo-dye, salt, benzaldehyde and water. The conditions noted are these: for precipitation of a single azo-dye from solutions: solutions with (1) blends of two or more salts, (2) sweetener, (3) fiber (inulin) with sodium chloride; for precipitate in a solution of the substance and water: substance and water only. The class given is physicochemical. An excerpt: It was observed that many solutions fail to keep a single azo-dye species stable in the presence of electrolyte ions. For example, the azo-dye (Yellow 5, Yellow 6, or Red 40) precipitated from solutions containing the following: (1) blends of two or more salts (including potassium chloride, tripotassium phosphate, sodium chloride, and magnesium chloride) with a single azo-dye; (2) sweetener (including sucrose, fructose, and raw honey) and a single azo-dye; and (3) fiber (such as inulin) with sodium chloride and a single azo-dye.
Such precipitate is believed to be crystals of the azo-dye or possibly even co-crystals of the azo-dye with sodium chloride, sodium ions, chloride ions, or sodium and chloride ions. It is believed that the presence of an ion (not limited to sodium and/or chloride) creates an unfavorable environment for the azo-dye to exist in and causes the azo-dye to precipitate or crystallize. However, this crystallization or precipitation is not observed when levels of salt or azo-dye are below the threshold for the reaction to occur.
While wishing to not be bound by theory, a solution of benzaldehyde, salt, Red 40, and water causes precipitation through a different mechanism when compared to precipitate found from solutions of salt, an azo-dye, and water. […] Such precipitate is believed to be due the complexation of salt, Red 40, and benzaldehyde. This complexation may occur due to the thermodynamic unfavorability of all three components to exist in solution with one another. The precipitation found in this system appears to be more sediment-like rather than crystal-like precipitate found in a solution of Red 40, salt, and water. However, crystals or co-crystals may exist within the salt, Red 40, and benzaldehyde complexation and this complexation is not observed when levels of salt, azo-dye, or benzaldehyde are below the threshold for the reaction to occur.

[3] abbreviates: 4 % added to 90 % electrolyte base (0.45 wt % Red 40), 0.12% benzaldehyde for the benzaldehyde solution.
[4] abbreviates: 6 % added to 90 % electrolyte base (0.45 wt % Red 40), 0.18% benzaldehyde for the benzaldehyde solution.
[5] abbreviates: 8 % added to 90 % electrolyte base (0.45 wt % Red 40), 0.24% benzaldehyde for the benzaldehyde solution.
Where [6] appears, read: 10 % added to 90 % electrolyte base (0.45 wt % Red 40), 0.3% benzaldehyde for the benzaldehyde solution.

Molecules are shown by their SMILES.

Turning to `CC(O)CO` (stereo not drawn) [PG 100%, Propylene Glycol], the “Observations after 2 months at 70 F. (room temp)” value (“Observations after 2 months” below) in series [1] (0.1 % added to 90 % electrolyte base (0.45 wt % Red 40)), in series [1] (0.25 % added to 90 % electrolyte base (0.45 wt % Red 40)), in series [1] (0.5 % added to 90 % electrolyte base (0.45 wt % Red 40)), in series [1] (1 % added to 90 % electrolyte base (0.45 wt % Red 40)), in series [1] (2 % added to 90 % electrolyte base (0.45 wt % Red 40)) and in series [1] (setting [3]) was “No precipitation” in each case. Further, the “Observations after 2 months” value in series [1] (setting [4]), in series [1] (setting [5]) and in series [1] (setting [6]) was “No precipitation” throughout.

Regarding `COc1cc(S(=O)(=O)[O-])c(C)cc1N=Nc1c(O)ccc2cc(S(=O)(=O)[O-])ccc12.[Na+].[Na+]` [Red 40], in series [2], the “precipitate / complexation in a solution of salt, azo-dye, benzaldehyde, and water” value (“precipitate / complexation in a solution” for short) is “not stable and produces precipitate”; the “precipitation of a single azo-dye from solutions” value (“precipitation of a single azo-dye” for short) was “precipitated”; the “precipitate in a solution of the substance and water” value (“precipitate in a solution” below) is “free of precipitate”.

For `O=C(O)c1nn(-c2ccc(S(=O)(=O)O)cc2)c(O)c1N=Nc1ccc(S(=O)(=O)O)cc1` [Yellow 5], in series [2], the “precipitate / complexation in a solution” value is reported as “no complexations were observed”; the “precipitation of a single azo-dye” value is “precipitated”; the “precipitate in a solution” value is given as “free of precipitate”.

As to `O=S(=O)([O-])c1ccc(N=Nc2c(O)ccc3cc(S(=O)(=O)[O-])ccc23)cc1.[Na+].[Na+]` [Yellow 6], in series [2], the “precipitate / complexation in a solution” value is given as “no complexations were observed”; the “precipitation of a single azo-dye” value is “precipitated”; the “precipitate in a solution” value is “free of precipitate”.

On to `O=Cc1ccccc1` [benzaldehyde], for which the “Observations after 2 months” value in series [1] (setting [3]) is “formed precipitation”; in series [1] (setting [4]), “formed precipitation”; in series [1] (setting [5]), “formed precipitation within hours”; in series [1] (setting [6]), “formed precipitation within hours”. Further, the “benzaldehyde content at which the system is free of precipitation” value in series [1] (90× electrolyte concentrate with 0.45 wt % Red 40, stored for up to 2 months) is “up to 0.11%”. The “precipitate in a solution” value in series [2] was “free of precipitate”.

The values above are taken from patent US20130259986A1, “COMPOSITIONS AND METHODS FOR INHIBITING PRECIPITATION OF DYES IN A BEVERAGE” (Kraft Foods Global Brands LLC, priority 2012, published 2013).
